Results published in patent publication EP4817688A2, “DEGRADING PKCß1 TO TREAT CANCER” (Mayo Foundation for Medical Education and Research, priority 2020, dated 2022).
Values joined by “and” are separate entries in the source; they are usually repeats but may differ in a detail not shown here. Equal entries are not always repeated.

Assay: pharmacokinetics in female CD1 mice, plasma by UPLC-MS/MS
Type: in vivo
Conditions: plasma
Procedure: ENDX PROTAC 7 and PROTAC 9 pharmacokinetics were characterized in female CD1 mice. Blood samples were collected from mice anesthetized under isoflurane via retro-orbital eye bleed into tubes containing EDTA and immediately chilled on ice. NaF was added to the EDTA collection tubes to help stabilize the drug in whole blood for the second IV and IP studies with ENDX PROTAC 9, and for the IV and oral studies with PROTAC 7. Plasma and red blood cells were separated immediately by centrifugation in a refrigerated centrifuge at 4°C. The plasma was transferred to a separate tube and immediately frozen at -20°C.
For IV dosing, ENDX PROTAC 9 was dissolved in 10% DMSO, 10% PEG 400, and 80% normal saline for a final concentration of 0.2 mg/mL ENDX PROTAC 9 for the 1 mg/kg IV doses. ENDX PROAC 7 was dissolved in 15% DMSO, 9.44% PEG400, and 55% normal saline for a final concentration of 0.19 mg/mL for the 1 mg/kg IV doses. Blood samples (3 mice per time-point) were collected 5 minutes, 15 minutes, 0.5 hour, 1 hour, 2 hours, 4 hours, 8 hours, and 24 hours after administration of the ENDX PROTAC. […] For oral dosing, ENDX PROTAC 9 (10 mg/kg) and ENDX PROTAC 7 (10 mg/kg) were suspended in 1 mM ascorbic acid:PEG400, 1:1 v/v for a final concentration of 1.0 mg/mL ENDX PROTAC. Blood samples (three mice per time-point) were collected 15 minutes, 0.5 hour, 1 hour, 2 hours, 4 hours, 6 hours, 8 hours, and 24 hours after administering the ENDX PROTAC. For I.P. dosing, ENDX PROTAC 9 (4 mg/kg) was prepared in 1 mM ascorbic acid:PEG400, 1:1 v/v for a final concentration of 0.4 mg/mL ENDX PROTAC 9. Blood samples (three mice per time-point) were collected 15 minutes, 0.5 hour, 1 hour, 2 hours, 4 hours, 6 hours, 8 hours, and 24 hours after administration. Plasma concentrations of ENDX PROTAC 7 and 9 were measured using UPLC-MS/MS.

Compound: CCC(=C(c1ccc(O)cc1)c1ccc(OCCN(C)C(=O)COCCOCCNC(=O)Cc2ccc3c(c2)CN(C2CCC(=O)NC2=O)C3=O)cc1)c1ccccc1 (centres unmarked) [TC-Pr-009, 2-[2-(2-2-[2-(2,6-dioxopiperidin-3-yl)-1-oxo-2,3-dihydro-1H-isoindol-5-yl]acetamidoethoxy)ethoxy]-N-(2-4-[1-(4-hydroxyphenyl)-2-phenylbut-1-en-1-yl]phenoxyethyl)-N-methylacetamide]
- Concentration ENDX PROTAC 9 (IV 1 mg/kg, EDTA without NaF, 30 minutes, individual mice, listed as ENDX PROTAC 9, 1 mg/kg): 1.662 ng/mL
- Concentration ENDX PROTAC 9 (IV 1 mg/kg, EDTA without NaF, 60 minutes, individual mice, listed as ENDX PROTAC 9, 1 mg/kg): 0.5069 ng/mL and 0.2706 ng/mL and 0.0179 ng/mL
- Concentration ENDX PROTAC 9 (IV 1 mg/kg, EDTA without NaF, 120 minutes, individual mice, listed as ENDX PROTAC 9, 1 mg/kg): 0.8988 ng/ml and 0.4446 ng/ml and BLD
- Concentration ENDX PROTAC 9 (IV 1 mg/kg, EDTA without NaF, 240 minutes, individual mice, listed as ENDX PROTAC 9, 1 mg/kg): BLD and 0.0197 ng/ml and 0.3141 ng/ml
- Concentration ENDX PROTAC 9 (IV 1 mg/kg, EDTA without NaF, 480 minutes, individual mice, listed as ENDX PROTAC 9, 1 mg/kg): 0 ng/ml and BLD (2×)
- Concentration ENDX PROTAC 9 (IV 1 mg/kg, EDTA without NaF, 1440 minutes, individual mice, listed as ENDX PROTAC 9, 1 mg/kg): BLD and 0 ng/ml (2×)
- Concentration ENDX PROTAC 9 (IV 1 mg/kg, all data (both IV studies), 30 minutes, listed as ENDX PROTAC 9, 1 mg/kg): 1.662 ng/mL
- Concentration ENDX PROTAC 9 (IV 1 mg/kg, all data (both IV studies), 120 minutes, listed as ENDX PROTAC 9, 1 mg/kg): BLD
- Concentration ENDX PROTAC 9 (IV 1 mg/kg, all data (both IV studies), 240 minutes, listed as ENDX PROTAC 9, 1 mg/kg): BLD
- Concentration ENDX PROTAC 9 (IV 1 mg/kg, second study (NaF), 5 minutes, individual mice, listed as ENDX PROTAC 9, 1 mg/kg): 86.31 ng/mL and 91.46 ng/mL and 34.87 ng/mL
- Concentration ENDX PROTAC 9 (IV 1 mg/kg, second study (NaF), 15 minutes, individual mice, listed as ENDX PROTAC 9, 1 mg/kg): 8.2 ng/mL and 33.8 ng/mL and 10.72 ng/mL
- Concentration ENDX PROTAC 9 (IV 1 mg/kg, second study (NaF), 60 minutes, individual mice, listed as ENDX PROTAC 9, 1 mg/kg): 1.18 ng/mL and 1.26 ng/mL and 12.64 ng/mL
- Concentration ENDX PROTAC 9 (IV 1 mg/kg, second study (NaF), 240 minutes, individual mice, listed as ENDX PROTAC 9, 1 mg/kg): 0.19 ng/mL and 1.11 ng/mL and 0.39 ng/mL
- Concentration ENDX PROTAC 9 (PO 10 mg/kg, 15 minutes, individual mice, listed as ENDX PROTAC 9, 10 mg/kg): 6.95 ng/mL and 4.77 ng/mL and 2.11 ng/mL
- Concentration ENDX PROTAC 9 (PO 10 mg/kg, 30 minutes, individual mice, listed as ENDX PROTAC 9, 10 mg/kg): 0.58 ng/mL and 1.05 ng/mL
- Concentration ENDX PROTAC 9 (PO 10 mg/kg, 60 minutes, individual mice, listed as ENDX PROTAC 9, 10 mg/kg): 6.78 ng/mL and 15.8 ng/mL and 10.6 ng/mL
- Concentration ENDX PROTAC 9 (PO 10 mg/kg, 120 minutes, individual mice, listed as ENDX PROTAC 9, 10 mg/kg): 0.25 ng/ml and BLD* and 0.55 ng/ml
- Concentration ENDX PROTAC 9 (PO 10 mg/kg, 240 minutes, individual mice, listed as ENDX PROTAC 9, 10 mg/kg): 0.9 ng/mL and 0.16 ng/mL and 0.14 ng/mL
- Concentration ENDX PROTAC 9 (PO 10 mg/kg, 360 minutes, individual mice, listed as ENDX PROTAC 9, 10 mg/kg): 2.61 ng/ml and BLD and 0.05 ng/ml
- Concentration ENDX PROTAC 9 (PO 10 mg/kg, 480 minutes, individual mice, listed as ENDX PROTAC 9, 10 mg/kg): BLD
- Concentration ENDX PROTAC 9 (PO 10 mg/kg, 1440 minutes, individual mice): BLD
- Concentration ENDX PROTAC 9 (TABLE 7, titled PO pk (10 mg/kg), 15 minutes, individual mice, listed as ENDX PROTAC 9, 10 mg/kg): 111.19 ng/mL and 133.09 ng/mL
- Concentration ENDX PROTAC 9 (TABLE 7, titled PO pk (10 mg/kg), 30 minutes, individual mice, listed as ENDX PROTAC 9, 10 mg/kg): 156.42 ng/mL and 83.56 ng/mL
- Concentration ENDX PROTAC 9 (TABLE 7, titled PO pk (10 mg/kg), 60 minutes, individual mice, listed as ENDX PROTAC 9, 10 mg/kg): 141.51 ng/mL and 93.93 ng/mL
- Concentration ENDX PROTAC 9 (TABLE 7, titled PO pk (10 mg/kg), 120 minutes, individual mice, listed as ENDX PROTAC 9, 10 mg/kg): 60.32 ng/mL and 106.7 ng/mL and 40.51 ng/mL
- Concentration ENDX PROTAC 9 (TABLE 7, titled PO pk (10 mg/kg), 240 minutes, individual mice, listed as ENDX PROTAC 9, 10 mg/kg): 17.29 ng/mL and 5.09 ng/mL and 30.55 ng/mL
- Concentration ENDX PROTAC 9 (TABLE 7, titled PO pk (10 mg/kg), 360 minutes, individual mice, listed as ENDX PROTAC 9, 10 mg/kg): 1.64 ng/mL and 0.75 ng/mL and 2.62 ng/mL
- Concentration ENDX PROTAC 9 (TABLE 7, titled PO pk (10 mg/kg), 480 minutes, individual mice, listed as ENDX PROTAC 9, 10 mg/kg): 7.23 ng/mL and 1.2 ng/mL
- Concentration ENDX PROTAC 9 (TABLE 7, titled PO pk (10 mg/kg), 1440 minutes, individual mice, listed as ENDX PROTAC 9, 10 mg/kg): 1.01 ng/mL and 0.33 ng/mL and 0.12 ng/mL
